Laboratory results from ChEMBL document CHEMBL1132537, “A series of 6- and 7-piperazinyl- and -piperidinylmethylbenzoxazinones with dopamine D4 antagonist activity: discovery of a potential atypical antipsychotic agent” (J Med Chem, 1999).

How the values were obtained:
Rattus norvegicus [1] = test: Effect on Dopamine synthesis in rat Hippocampus(HI), measured as accumulation of DOPA(L-3,4-dihydroxyphenylalanine) at a peroral dose of 10 mg/kg; format: functional; settings: route oral
Rattus norvegicus [2] = test: Effect on Dopamine synthesis in rat Striatum(ST), measured as accumulation of DOPA(L-3,4-dihydroxyphenylalanine) at a peroral dose of 10 mg/kg; format: functional; settings: route oral
D(4) dopamine receptor = molecular target: T1, D(4) dopamine receptor (Homo sapiens, UniProt P21917); test: biochemical
T1 sequence (P21917 whole entry): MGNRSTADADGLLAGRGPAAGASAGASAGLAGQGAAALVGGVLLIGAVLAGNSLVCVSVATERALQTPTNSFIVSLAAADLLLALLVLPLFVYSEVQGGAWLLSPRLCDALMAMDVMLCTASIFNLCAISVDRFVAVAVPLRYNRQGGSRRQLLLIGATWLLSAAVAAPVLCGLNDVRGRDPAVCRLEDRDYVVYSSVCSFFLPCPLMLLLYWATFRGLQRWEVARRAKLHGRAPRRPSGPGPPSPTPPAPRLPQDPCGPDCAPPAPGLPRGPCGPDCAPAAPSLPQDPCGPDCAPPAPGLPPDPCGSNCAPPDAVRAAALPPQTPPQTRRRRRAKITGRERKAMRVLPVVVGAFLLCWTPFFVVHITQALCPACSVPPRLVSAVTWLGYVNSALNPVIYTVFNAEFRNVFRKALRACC
Description: Binding affinity at Dopamine receptor D4 in CHO cells by radioligand displacement.

D(3) dopamine receptor = D(3) dopamine receptor (Homo sapiens, UniProt P35462); test: biochemical
Description: Binding affinity at Dopamine receptor D3 in CHO cells by radioligand displacement.

Rattus norvegicus [3] = test: Effect on Dopamine synthesis in rat Hippocampus(HI), measured as accumulation of DOPA(L-3,4-dihydroxyphenylalanine) at a peroral dose of 20 mg/kg; format: functional; settings: route oral
Rattus norvegicus [4] = test: Effect on Dopamine synthesis in rat Striatum(ST), measured as accumulation of DOPA(L-3,4-dihydroxyphenylalanine) at a peroral dose of 20 mg/kg; format: functional; settings: route oral
Rattus norvegicus [5] = test: Effect on Dopamine synthesis in rat Hippocampus(HI), measured as accumulation of DOPA(L-3,4-dihydroxyphenylalanine) at a peroral dose of 30 mg/kg; format: functional; settings: route oral
Rattus norvegicus [6] = test: Effect on Dopamine synthesis in rat Striatum(ST), measured as accumulation of DOPA(L-3,4-dihydroxyphenylalanine) at a peroral dose of 30 mg/kg; format: functional; settings: route oral
[7] = molecular target: T2, 5-hydroxytryptamine receptor 1A (Homo sapiens, UniProt P08908); test: Inhibition of [3H]- […] binding against human recombinant 5-hydroxytryptamine 1A receptor
T2 sequence (P08908 whole entry): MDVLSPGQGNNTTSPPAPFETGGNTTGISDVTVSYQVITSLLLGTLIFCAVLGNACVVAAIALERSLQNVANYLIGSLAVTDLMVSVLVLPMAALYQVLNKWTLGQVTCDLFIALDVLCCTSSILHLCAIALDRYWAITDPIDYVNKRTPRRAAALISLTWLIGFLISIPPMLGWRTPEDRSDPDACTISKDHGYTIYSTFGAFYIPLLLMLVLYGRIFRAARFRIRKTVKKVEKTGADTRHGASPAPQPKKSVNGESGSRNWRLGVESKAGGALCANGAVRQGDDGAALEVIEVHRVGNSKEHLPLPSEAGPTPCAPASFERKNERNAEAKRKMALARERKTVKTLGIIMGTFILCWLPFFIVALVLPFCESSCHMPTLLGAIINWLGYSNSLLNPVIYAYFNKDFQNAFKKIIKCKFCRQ

[8] = molecular target: Serotonin 2 (5-HT2) receptor (Rattus norvegicus, UniProt P30994+P08909+P14842); test: Inhibition of [3H]- Ketanserin binding against rat brain 5-hydroxytryptamine 2 receptor
[9] = molecular target: T3, Alpha-1A adrenergic receptor (Rattus norvegicus, UniProt P43140); test: Inhibition of [3H]- prazosin binding against Alpha-1A adrenergic receptor from rat submaxillary gland
T3 sequence (P43140 whole entry): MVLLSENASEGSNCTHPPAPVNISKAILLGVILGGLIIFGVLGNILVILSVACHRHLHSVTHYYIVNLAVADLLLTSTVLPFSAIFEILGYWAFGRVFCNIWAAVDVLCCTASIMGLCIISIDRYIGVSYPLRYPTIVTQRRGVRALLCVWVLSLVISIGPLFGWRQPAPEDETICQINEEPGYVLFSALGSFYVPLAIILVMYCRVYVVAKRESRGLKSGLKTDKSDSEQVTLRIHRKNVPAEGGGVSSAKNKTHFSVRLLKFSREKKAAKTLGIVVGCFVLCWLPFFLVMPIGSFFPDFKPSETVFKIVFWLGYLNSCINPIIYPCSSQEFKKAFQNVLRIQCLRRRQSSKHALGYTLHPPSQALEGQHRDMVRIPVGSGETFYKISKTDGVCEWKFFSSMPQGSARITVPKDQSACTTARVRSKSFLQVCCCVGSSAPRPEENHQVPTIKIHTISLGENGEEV

[10] = molecular target: T4, Alpha-1B adrenergic receptor (Rattus norvegicus, UniProt P15823); test: Inhibition of [3H]- prazosin binding against Alpha-1B adrenergic receptor from rat liver
T4 sequence (P15823 whole entry): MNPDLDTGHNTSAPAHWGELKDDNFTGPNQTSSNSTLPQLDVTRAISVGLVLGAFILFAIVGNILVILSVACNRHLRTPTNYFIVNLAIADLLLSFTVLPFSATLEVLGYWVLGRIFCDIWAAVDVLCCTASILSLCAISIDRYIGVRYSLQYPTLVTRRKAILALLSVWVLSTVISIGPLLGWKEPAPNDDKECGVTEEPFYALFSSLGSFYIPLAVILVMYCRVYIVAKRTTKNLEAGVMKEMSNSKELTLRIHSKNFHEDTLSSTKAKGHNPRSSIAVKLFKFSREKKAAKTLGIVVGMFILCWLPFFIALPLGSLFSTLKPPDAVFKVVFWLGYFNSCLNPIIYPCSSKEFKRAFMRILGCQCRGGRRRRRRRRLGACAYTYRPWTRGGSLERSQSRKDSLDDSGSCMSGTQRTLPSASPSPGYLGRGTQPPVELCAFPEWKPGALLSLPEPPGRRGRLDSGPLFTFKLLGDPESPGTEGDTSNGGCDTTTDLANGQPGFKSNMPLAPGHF

[11] = molecular target: T5, Alpha-2A adrenergic receptor (Homo sapiens, UniProt P08913); test: Inhibition of [3H]- MK-912 binding against human recombinant Alpha-2A adrenergic receptor
T5 sequence (P08913 whole entry): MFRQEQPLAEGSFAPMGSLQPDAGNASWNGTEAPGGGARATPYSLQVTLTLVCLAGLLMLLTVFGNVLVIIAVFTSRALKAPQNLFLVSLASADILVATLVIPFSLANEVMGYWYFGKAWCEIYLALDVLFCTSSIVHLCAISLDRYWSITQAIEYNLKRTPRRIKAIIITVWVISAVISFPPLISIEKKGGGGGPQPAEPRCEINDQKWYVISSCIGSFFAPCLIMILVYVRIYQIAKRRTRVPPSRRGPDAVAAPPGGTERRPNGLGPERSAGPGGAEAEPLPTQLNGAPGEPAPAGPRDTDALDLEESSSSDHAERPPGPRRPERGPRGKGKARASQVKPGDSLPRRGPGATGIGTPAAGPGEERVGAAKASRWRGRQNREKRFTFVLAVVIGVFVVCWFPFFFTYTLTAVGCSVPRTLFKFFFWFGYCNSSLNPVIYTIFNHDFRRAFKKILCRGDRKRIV

D(2) dopamine receptor = D(2) dopamine receptor (Homo sapiens, UniProt P14416); test: Binding affinity at Dopamine receptor D2 in CHO cells by radioligand displacement.; format: cell-based
[12] = molecular target: T6, Muscarinic acetylcholine receptor M5 (Homo sapiens, UniProt P08912); test: Inhibition of [3H]- NMS binding against human recombinant Muscarinic acetylcholine receptor M5
T6 sequence (P08912 whole entry): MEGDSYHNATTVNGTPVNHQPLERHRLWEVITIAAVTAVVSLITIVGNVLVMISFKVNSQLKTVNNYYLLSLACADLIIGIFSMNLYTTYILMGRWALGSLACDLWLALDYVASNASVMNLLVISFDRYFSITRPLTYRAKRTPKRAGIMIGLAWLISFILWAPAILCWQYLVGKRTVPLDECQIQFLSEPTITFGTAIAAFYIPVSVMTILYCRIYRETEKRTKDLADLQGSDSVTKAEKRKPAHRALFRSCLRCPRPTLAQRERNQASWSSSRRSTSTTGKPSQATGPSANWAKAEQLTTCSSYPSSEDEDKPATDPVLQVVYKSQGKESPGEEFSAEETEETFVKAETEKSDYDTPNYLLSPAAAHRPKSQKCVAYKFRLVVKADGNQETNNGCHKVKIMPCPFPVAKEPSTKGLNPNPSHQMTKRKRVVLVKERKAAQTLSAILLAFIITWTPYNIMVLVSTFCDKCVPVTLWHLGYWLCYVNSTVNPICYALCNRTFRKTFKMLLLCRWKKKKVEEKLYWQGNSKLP

[13] = molecular target: Sigma intracellular receptor 2 (Rattus norvegicus, UniProt Q5U3Y7); test: Inhibition of [3H]- Ifenprodil binding against rat brain Sigma opioid receptor type 2
[14] = molecular target: T7, Alpha-2B adrenergic receptor (Rattus norvegicus, UniProt P19328); test: Inhibition of [3H]- Yohimbine binding against rat kidney cortex Alpha-2B adrenergic receptor
T7 sequence (P19328 whole entry): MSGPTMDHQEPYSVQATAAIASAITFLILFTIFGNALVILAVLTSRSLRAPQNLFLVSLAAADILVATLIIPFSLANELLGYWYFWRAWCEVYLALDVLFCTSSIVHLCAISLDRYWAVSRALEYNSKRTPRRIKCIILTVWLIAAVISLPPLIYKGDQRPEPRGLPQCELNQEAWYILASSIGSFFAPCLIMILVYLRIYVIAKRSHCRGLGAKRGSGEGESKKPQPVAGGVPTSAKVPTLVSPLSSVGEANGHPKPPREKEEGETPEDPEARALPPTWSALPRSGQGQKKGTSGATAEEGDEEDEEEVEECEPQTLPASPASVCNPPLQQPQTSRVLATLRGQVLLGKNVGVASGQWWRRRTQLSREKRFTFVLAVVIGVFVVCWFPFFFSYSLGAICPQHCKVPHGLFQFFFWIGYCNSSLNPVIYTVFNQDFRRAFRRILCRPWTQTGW

Chain of D(3) dopamine receptor (P35462 whole entry): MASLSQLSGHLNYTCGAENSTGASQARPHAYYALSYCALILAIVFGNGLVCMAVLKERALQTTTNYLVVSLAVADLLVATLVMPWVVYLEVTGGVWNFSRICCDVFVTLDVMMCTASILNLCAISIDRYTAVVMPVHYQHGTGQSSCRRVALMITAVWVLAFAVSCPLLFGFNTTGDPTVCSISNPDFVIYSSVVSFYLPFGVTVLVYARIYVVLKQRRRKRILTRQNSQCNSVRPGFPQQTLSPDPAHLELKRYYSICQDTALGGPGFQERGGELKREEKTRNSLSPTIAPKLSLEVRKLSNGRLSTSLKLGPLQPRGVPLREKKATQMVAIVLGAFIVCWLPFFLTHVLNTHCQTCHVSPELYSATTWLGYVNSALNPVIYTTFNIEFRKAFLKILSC
Chain of D(2) dopamine receptor (P14416 whole entry): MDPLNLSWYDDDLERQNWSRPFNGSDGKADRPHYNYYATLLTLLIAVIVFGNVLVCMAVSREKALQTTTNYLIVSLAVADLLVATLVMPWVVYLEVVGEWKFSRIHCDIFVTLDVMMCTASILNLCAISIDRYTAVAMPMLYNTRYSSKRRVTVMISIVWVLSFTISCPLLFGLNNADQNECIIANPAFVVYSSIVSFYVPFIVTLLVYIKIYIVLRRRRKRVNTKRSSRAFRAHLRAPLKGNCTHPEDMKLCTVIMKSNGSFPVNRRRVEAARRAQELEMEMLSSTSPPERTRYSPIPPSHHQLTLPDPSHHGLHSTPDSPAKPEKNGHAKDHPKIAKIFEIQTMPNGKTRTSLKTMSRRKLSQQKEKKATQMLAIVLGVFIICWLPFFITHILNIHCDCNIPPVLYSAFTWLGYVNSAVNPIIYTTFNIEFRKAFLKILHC
Chain of Sigma intracellular receptor 2 (Q5U3Y7 whole entry, looked up): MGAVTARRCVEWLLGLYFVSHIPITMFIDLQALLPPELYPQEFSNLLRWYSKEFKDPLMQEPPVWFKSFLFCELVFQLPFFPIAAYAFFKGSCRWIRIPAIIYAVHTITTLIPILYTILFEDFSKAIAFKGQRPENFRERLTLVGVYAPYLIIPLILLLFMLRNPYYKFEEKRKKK

Cc1ccc(C2CCN(Cc3ccc4c(c3)NC(=O)CO4)CC2)cc1C
Change in DA synthesis (Rattus norvegicus [1]): 128%
Change in DA synthesis (Rattus norvegicus [2]): 104%
Ki (D(4) dopamine receptor): 1.8 nM
Ki (D(3) dopamine receptor): > 3030 nM

O=C1COc2ccc(CN3CCN(c4ccc(Cl)cc4)CC3)cc2N1
Ki (D(4) dopamine receptor): 62.4 nM
Ki (D(3) dopamine receptor): > 3030 nM

O=C1COc2cc(CN3CCN(c4ccccc4)CC3)ccc2N1
Ki (D(4) dopamine receptor): 6.1 nM
Ki (D(3) dopamine receptor): 10.4 nM

Cc1ccc(C2CCN(Cc3ccc4c(c3)NC(=O)CO4)CC2)cc1
Ki (D(4) dopamine receptor): 2.8 nM
Ki (D(3) dopamine receptor): > 3030 nM

Cc1ccc(C2CCN(Cc3ccc4c(c3)OCC(=O)N4)CC2)cc1C
Change (Rattus norvegicus [1]): 103%
Change (Rattus norvegicus [2]): 99%
Ki (D(4) dopamine receptor): 2.6 nM
Ki (D(3) dopamine receptor): 859 nM

Cc1ccc(N2CCN(Cc3ccc4c(c3)NC(=O)CO4)CC2)cc1
Change (Rattus norvegicus [3]): 89%
Change (Rattus norvegicus [4]): 111%
Ki (D(4) dopamine receptor): 4.3 nM
Ki (D(3) dopamine receptor): 2490 nM

COc1ccc(C2CCN(Cc3ccc4c(c3)NC(=O)CO4)CC2)cc1
Change (Rattus norvegicus [5]): 93%
Change (Rattus norvegicus [6]): 96%
Ki (D(3) dopamine receptor): > 3030 nM

Cc1ccc(N2CCN(Cc3ccc4c(c3)OCC(=O)N4)CC2)cc1C
Ki (D(3) dopamine receptor): 78.5 nM

O=C1COc2cc(CN3CCN(c4ccc(Cl)cc4)CC3)ccc2N1
IC50 [7]: 1400 nM
Ki [7]: 792 nM
IC50 [8]: 2700 nM
Ki [8]: 1678 nM
IC50 [9]: 500 nM
Ki [9]: 203 nM
IC50 [10]: 1420 nM
Ki [10]: 787 nM
IC50 [11]: 1100 nM
Ki [11]: 411 nM
Ki (D(2) dopamine receptor): 413 nM
IC50 [12]: 1340 nM
Ki [12]: 964 nM
Change (Rattus norvegicus [1]): 146%
Change (Rattus norvegicus [2]): 110%
IC50 [13]: 375 nM
Ki [13]: 231 nM
IC50 [14]: 630 nM
Ki [14]: 368 nM
Ki (D(4) dopamine receptor): 4.3 nM
Ki (D(3) dopamine receptor): 679 nM

Cc1ccc(N2CCN(Cc3ccc4c(c3)OCC(=O)N4)CC2)cc1
Change (Rattus norvegicus [1]): 133%
Change (Rattus norvegicus [2]): 140%
Ki (D(3) dopamine receptor): 208 nM

COc1ccc(C2CCN(Cc3ccc4c(c3)OCC(=O)N4)CC2)cc1
Change (Rattus norvegicus [3]): 132%
Change (Rattus norvegicus [4]): 126%
Ki (D(4) dopamine receptor): 6.7 nM
Ki (D(3) dopamine receptor): 428 nM

Cc1ccc(C2CCN(Cc3ccc4c(c3)OCC(=O)N4)CC2)cc1
Ki (D(4) dopamine receptor): 2.6 nM
Ki (D(3) dopamine receptor): 232 nM

Cc1ccc(N2CCN(Cc3ccc4c(c3)NC(=O)CO4)CC2)cc1C
Change (Rattus norvegicus [1]): 122%
Change (Rattus norvegicus [2]): 126%
Ki (D(3) dopamine receptor): 864 nM

COc1ccc(N2CCN(Cc3ccc4c(c3)NC(=O)CO4)CC2)cc1
Change (Rattus norvegicus [5]): 91%
Change (Rattus norvegicus [6]): 110%
Ki (D(3) dopamine receptor): > 3030 nM

O=C1COc2ccc(CN3CCN(c4ccccc4)CC3)cc2N1
Ki (D(4) dopamine receptor): 18.3 nM
Ki (D(3) dopamine receptor): 839 nM

COc1ccc(N2CCN(Cc3ccc4c(c3)OCC(=O)N4)CC2)cc1
Ki (D(2) dopamine receptor): > 5880 nM
Change (Rattus norvegicus [1]): 122%
Change (Rattus norvegicus [2]): 104%
Ki (D(4) dopamine receptor): 5 nM
Ki (D(3) dopamine receptor): 1790 nM
